Experimental data as given in patent publication US8349875B2, “Dual-acting antihypertensive agents” (Theravance, Inc., priority 2007, dated 2013).

Biological target: T1, human AT1 receptor (Homo sapiens, UniProt P30556)
T1 construct: expressed in transfected cells; host or cells: CHO-K1
T1 sequence (P30556 1-359): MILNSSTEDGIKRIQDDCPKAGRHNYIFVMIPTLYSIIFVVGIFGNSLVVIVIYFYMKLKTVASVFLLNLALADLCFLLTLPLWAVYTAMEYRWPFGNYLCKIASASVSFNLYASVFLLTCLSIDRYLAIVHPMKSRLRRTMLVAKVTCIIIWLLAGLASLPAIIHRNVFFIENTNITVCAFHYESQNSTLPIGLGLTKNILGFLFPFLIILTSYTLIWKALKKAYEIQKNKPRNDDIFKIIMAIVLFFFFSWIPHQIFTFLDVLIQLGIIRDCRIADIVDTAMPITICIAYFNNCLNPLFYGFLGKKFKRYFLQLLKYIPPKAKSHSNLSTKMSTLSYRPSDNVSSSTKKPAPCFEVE
Assay: AT1 radioligand binding assay (Assay 1)
Conditions: displacement of [Eu]AngII 2 nM, membranes of CHO-K1 cells expressing human AT1 receptor
Description: These in vitro assays were used to assess the ability of test compounds to bind to the AT1 and the AT2 receptors.
Chinese hamster ovary (CHO-K1) derived cell lines stably expressing the cloned human AT1 or AT2 receptors, respectively, were grown in HAM's-F12 medium supplemented with 10% fetal bovine serum, 10 μg/ml penicillin/streptomycin, and 500 μg/ml geneticin in a 5% CO2 humidified incubator at 37° C. AT2 receptor expressing cells were grown in the additional presence of 100 nM PD123,319 (AT2 antagonist). When cultures reached 80-95% confluence, the cells were washed thoroughly in PBS and lifted with 5 mM EDTA. […]
Binding assays were performed in 96-well Acrowell filter plates (Pall Inc., cat. #5020) in a total assay volume of 100 μL, with 0.2 μg membrane protein for membranes containing the human AT1 receptor, or 2 μg membrane protein for membranes containing the human AT2 receptor in assay buffer (50 mM Tris/HCl pH 7.5 at 20° C., 5 mM MgCl2, 25 μM EDTA, 0.025% BSA). […] Non-specific binding was determined in the presence of 10 μM unlabeled angiotensin-II. […] Filter-bound [Eu]AngII was quantitated immediately on a Fusion plate reader (PerkinElmer) using Time Resolved Fluorescence (TRF). Binding data were analyzed by nonlinear regression analysis with the GraphPad Prism Software package (GraphPad Software, Inc., San Diego, Calif.) using the 3-parameter model for one-site competition. […]

## 4′-2-Butyl-4-chloro-5-[((S)-2-mercaptomethyl-4-methylpentanoylamino)methyl]imidazol-1-ylmethylbiphenyl-2-carboxylic Acid [Example 1]
  pKi at the AT1 receptor: greater than 7.0
